Source: US12331024B2, “Substituted naphthyl P38alpha mitogen-activated protein kinase inhibitors” (GEN1E LIFESCIENCES INC., priority 2021, dated 2025)

Tests used:
Assay type in all cases: in vivo
[1] = Pharmacokinetics, mouse study: plasma AUCinf of metabolites after dosing Compound (4); details: female CD-1 mice, single intraperitoneal dose of 1 mg/mouse of Compound (4), metabolite AUCinf relative to Compound (4)
Description: (§1) The pharmacokinetics of Compounds (1)-(4) was determined in mice, rats, and monkeys.
Female CD-1 mice (n=9) received a single intraperitoneal dose of 1 mg/mouse of Compound (4). The dosing formulation was prepared prior to dose, with 2 mg/mL of Compound (4) in 4% DMSO and 96% PBS. Blood samples were collected from the mice at designated timepoints. Following collection, samples were centrifuged (2500 rpm for 10 minutes at 4° C.) and the resulting plasma was recovered and stored frozen (−60° C.).
(§2) Bioanalysis of the plasma samples was performed for Compounds (1)-(4). Mouse plasma samples were extracted by protein precipitation and analyzed by UPLC-MSMS using a Waters UPLC and API 5000® triple quadrupole mass spectrometer (AB Sciex, Toronto, Canada) with a Waters Acquity® UPLC BEH C18 column (50 mm×2.1 mm, 1.7 μm particle size). Acquisition and chromatographic peak integration were performed using Analyst® 1.7 Software. The standard curve regression and quantification of analytes in the samples was performed using the Analyst® Software.
(§3) Pharmacokinetic parameters were calculated based on the plasma concentration data for Compound (4) and the metabolites Compound (1)-(3) by non-compartmental methods using WinNonlin® Software, version 8.1 (Certara®, Inc). The area under the concentration time curve (AUCinf) was calculated for Compounds (1)-(4). The percent AUCinf (% AUCinf) for each metabolite was calculated as the ratio of the AUCinf for each respective metabolite divided by the AUCinf for Compound (4).

[2] = Pharmacokinetics, rat study: plasma AUCinf of metabolites after dosing Compound (4); details: male Sprague-Dawley rats, single intravenous bolus dose of 10 mg/kg Compound (4), metabolite AUCinf relative to Compound (4)
Description: as §1
Male Sprague-Dawley rats (n=3) received a single intravenous bolus dose of 10 mg/kg Compound (4). The dosing formulation was prepared by prior to dosing, with 5 mg/mL of Compound (4) in 14% sulphobutylether-β-cyclodextrin (SBECD) in deionized water (w/v). Blood samples were collected from each rat at designated timepoints. Following collection, the samples were centrifuged (2500 rpm for 10 minutes at approximately 4° C.) and the resulting plasma was recovered and stored frozen (−60° C.).
as §2, with “the” for “the plasma”, “Rat” for “Mouse”
as §3, with “calculated from” for “calculated based on”, “metabolites Compounds” for “metabolites Compound”, “AUCinf” for “AUCinf (% AUCinf)”, “for the metabolites” for “for each metabolite”

[3] = Pharmacokinetics, monkey study: plasma AUCinf of metabolites after dosing Compound (4); details: male cynomolgus monkeys, single 2 hour intravenous infusion of 5 mg/kg Compound (4), metabolite AUCinf relative to Compound (4)
Description: as §1
Male cynomolgus monkeys (n=3) received a single intravenous infusion over a period of 2 hours at a dose of 5 mg/kg Compound (4) (2.5 mL/kg/hour). The dosing formulation was prepared prior to dose, with 1 mg/mL of Compound (4) in 14% sulphobutylether-β-cyclodextrin (SBECD) in deionized water (w/v). Blood samples were collected from each monkey at designated timepoints. Following collection, the samples were centrifuged (2500 rpm for 10 minutes at 4° C.) and the resulting plasma was recovered and stored frozen (−60° C.).
Bioanalysis of samples was performed for Compounds (1)-(4). The monkey plasma samples were extracted by protein precipitation and analyzed by UPLC-MSMS using a Waters UPLC and API 5000® triple quadrupole mass spectrometer (AB Sciex, Toronto, Canada) with an ACE® Excel® 2 C18 column (50 mm×3.0 mm, 2 μm particle size) or a Waters Acquity® UPLC BEH C18 column (50 mm×2.1 mm, 1.7 μm). Acquisition and chromatographic peak integration were performed using Analyst® Software, version 1.6.3. The standard curve regression and quantification of analytes in the samples was performed using Watson LIMS® Software, version 7.4.1 (Thermo Fisher Scientific, Philadelphia, USA) or the Analyst® Software.
as §3, with “calculated from” for “calculated based on the”, “and its” for “and the”, “metabolites” for “metabolites Compound (1)-(3)”, “AUCinf” for “AUCinf (% AUCinf)”, “each of the metabolites” for “each metabolite”, “AUCinf of” for “AUCinf for”

Row | % AUCinf (100×AUCmetabolite/AUCCompound(4)) [1] | % AUCinf (100×AUCmetabolite/AUCCompound(4)) [2] | % AUCinf (100×AUCmetabolite/AUCCompound(4)) [3] | SMILES
1 | 31% | 9% | 64% | CNc1cccc2c(S(=O)(=O)Nc3ccc(CN4CCOCC4)cc3)cccc12 [Compound (1), 5-(methylamino)-N-(4-(morpholinomethyl)phenyl)naphthalene-1-sulfonamide]
2 | 10% | 48% | 132% | CNc1cccc2c(S(=O)(=O)Nc3ccc(CN4CCOCC4=O)cc3)cccc12 [Compound (2), 5-(methylamino)-N-(4-((3-oxomorpholino)methyl)phenyl)naphthalene-1-sulfonamide]
3 | 9% | 11% | 7% | CN(C)c1cccc2c(S(=O)(=O)Nc3ccc(CN4CCOCC4=O)cc3)cccc12 [Compound (3), 5-(dimethylamino)-N-(4-((3-oxomorpholino)methyl)phenyl)naphthalene-1-sulfonamide]
